Source: US12054449B2, “Phenylcarbamate crystalline form and method for manufacturing the same” (BIO-PHARM SOLUTIONS CO., LTD., priority 2021, dated 2024)
One block for each compound: values may come before it.

Columns and labels:
[1] = Competitive slurry experiment for Pattern 1 and Pattern 3; type: physicochemical; conditions: 4 days
Experimental: To investigate the relative thermodynamic stability of various crystalline form patterns at room temperature and 50° C., competitive slurry experiments were carried out.
A mixture of Pattern 1 and Pattern 3 (ED01748-028-003-00, 4×20 mg) was dispensed into vials. They were treated with 250 μL of a saturated solution of Pattern 1 (ED01748-006-001-00) in DIPE or heptane (50 mg of ED01748-006-001-00 was treated with DIPE or heptane and heated at 50° C., a portion was removed as needed, and the resulting product was filtered through a 0.45 μm syringe filter, thereby forming a slurry). The produced slurry was stirred at room temperature or 50° C. After analysis, the solid was returned to the vial, and an additional saturated solution was added as needed to maintain the slurry. After 4 days, the purity of the material was confirmed by UPLC.

[2] = Change of crystalline form on standing or drying (XRPD); type: physicochemical
Experimental: XRPD patterns were detected by CuKα irradiation (30 kV, 10 mA) using a Bruker AXS D2 diffractometer. The analysis was performed using θ-θ geometry and a LynxEye detector at 5 to 42° 2θ with a step size of 0.024° 2θ at 0.1 sec/step.
Samples were run at ambient conditions and prepared as flat specimens using powder received without grinding. About 1 to 2 mg of the sample was lightly pressed on a silicon wafer to obtain a flat surface.

SMILES: C[C@H](OC(N)=O)[C@@H](O)c1ccccc1Cl [ED01748-028-003-00, 1-(2-chlorophenyl)-(S)-1-hydroxypropyl-(S)-2-carbamate]
UPLC purity of slurry material after 4 days ([1]; DIPE samples, RT and 50° C.): 98%
UPLC purity of slurry material after 4 days ([1]; heptane sample): 98.5%

SMILES: C[C@H](OC(N)=O)[C@@H](O)c1ccccc1Cl [Pattern 4, 1-(2-chlorophenyl)-(S)-1-hydroxypropyl-(S)-2-carbamate]
Change in form by XRPD on drying ([2]; brief drying whilst standing in the open vial): change in form by XRPD from Pattern 4 to a mixture of Pattern 1 and Pattern 3

SMILES: C[C@H](OC(N)=O)[C@@H](O)c1ccccc1Cl [Pattern 6, 1-(2-chlorophenyl)-(S)-1-hydroxypropyl-(S)-2-carbamate]
Form conversion by XRPD ([2]; Pattern 6 material from anisole, stood overnight): converted to a mixture of Pattern 6 and Pattern 1
Form conversion by XRPD ([2]; Pattern 6 material from toluene): converted to a mixture of Pattern 6 and Pattern 3

Other lines, results leading:

Behaviour on standing [2]: variable behaviour on standing
SMILES: C[C@H](OC(N)=O)[C@@H](O)c1ccccc1Cl [Pattern 7, 1-(2-chlorophenyl)-(S)-1-hydroxypropyl-(S)-2-carbamate]

Change on standing ([2]; Pattern 8 from chloroform and heptane): observed to change on standing
change on standing o/n ([2]; solid from Exp. 10, chloroform/Heptane): No change
change on standing o/n ([2]; solid from Exp. 14, DCM/Heptane): Small
SMILES: C[C@H](OC(N)=O)[C@@H](O)c1ccccc1Cl [Pattern 8, 1-(2-chlorophenyl)-(S)-1-hydroxypropyl-(S)-2-carbamate]

change on standing o/n ([2]; solid from Exp. 9, chloroform/Toluene): No change
change on standing o/n ([2]; solid from Exp. 13, DCM/Toluene): No change
SMILES: C[C@H](OC(N)=O)[C@@H](O)c1ccccc1Cl [Pattern 9, 1-(2-chlorophenyl)-(S)-1-hydroxypropyl-(S)-2-carbamate]
